Results taken from PubChem BioAssay AID192 (DTP/NCI, 2004).
“And” between values parts separate entries of the source, which are not always exact repeats. Equal entries are not always repeated. Inconclusive results and toxic doses are left out. Rule for the calls: active = survival T/C of 150% or more; inactive = T/C below 125% in these data. Square brackets hold non-standard residues; d marks the D form. Peptide text beside a SMILES is read from it. * marks the point of attachment. ξ: configuration not given here. ξF = NC(Cc1ccccc1)C(=O)O; Cbz = O=C(OCc1ccccc1)*; Bz = O=C(c1ccccc1)*

System: BDF1 mice, B16 melanoma ip, median survival T/C
Assay: NCI In Vivo Anticancer Drug Screen. Data for tumor model B16 Melanoma (intraperitoneal) in B6D2F1 (BDF1) mice
Conditions: endpoint: median survival time, higher = longer survival
Outline: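 Mice with transplantable tumors; drug vs vehicle groups; endpoint survival or tumor size; value = T/C.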

[1] = dose: 25.0 mg/kg/injection, schedule: Q01DX009 (ip), vehicle: saline with Tween-80
[2] = dose: 50.0 mg/kg/injection, schedule: Q01DX009 (ip), vehicle: saline with Tween-80
[3] = dose: 100.0 mg/kg/injection, schedule: Q01DX009 (ip), vehicle: saline with Tween-80
[4] = dose: 100.0 mg/kg/injection, schedule: Q01DX009 (ip), vehicle: Klucel (hydroxypropylcellulose) (HPC)
[5] = dose: 12.5 mg/kg/injection, schedule: Q01DX009 (ip), vehicle: saline with Tween-80
[6] = dose: 200.0 mg/kg/injection, schedule: Q01DX009 (ip), vehicle: Klucel (hydroxypropylcellulose) (HPC)
[7] = dose: 400.0 mg/kg/injection, schedule: Q01DX009 (ip), vehicle: Klucel (hydroxypropylcellulose) (HPC)
[8] = dose: 150.0 mg/kg/injection, schedule: Q01DX009 (ip), vehicle: saline with Tween-80
[9] = dose: 12.5 mg/kg/injection, schedule: Q01DX009 (ip), vehicle: saline
[10] = dose: 200.0 mg/kg/injection, schedule: Q01DX009 (ip), vehicle: saline with Tween-80

Measured: T/C

O=[N+]([O-])c1ccc(/C=N\Nc2ccc([N+](=O)[O-])cn2)cc1
inactive: dose: 0.78 mg/kg/injection, schedule: Q01DX009 (ip), vehicle: Klucel (hydroxypropylcellulose) (HPC) 106 % of control | dose: 1.56 mg/kg/injection, schedule: Q01DX009 (ip), vehicle: Klucel (hydroxypropylcellulose) (HPC) 97 % of control | dose: 3.12 mg/kg/injection, schedule: Q01DX009 (ip), vehicle: Klucel (hydroxypropylcellulose) (HPC) 86 % of control | dose: 6.25 mg/kg/injection, schedule: Q01DX009 (ip), vehicle: Klucel (hydroxypropylcellulose) (HPC) 97 % of control | dose: 12.5 mg/kg/injection, schedule: Q01DX009 (ip), vehicle: Klucel (hydroxypropylcellulose) (HPC) 86 % of control

CCCC(C)c1ccccc1O (stereo not given)
inactive: [1] 108 % of control | [2] 108 % of control | [3] 92 % of control

N#C/C(=C\c1ccncc1)c1csc2ccccc12
inactive: dose: 50.0 mg/kg/injection, schedule: Q01DX009 (ip), vehicle: Klucel (hydroxypropylcellulose) (HPC) 88 % of control | [4] 89 % of control

O=C(CC(=Nc1ccccc1)c1ccccc1)c1ccccc1.O=C(CC(=Nc1ccccc1)c1ccccc1)c1ccccc1.[Cu]
inactive: dose: 6.25 mg/kg/injection, schedule: Q04DX003 (ip), vehicle: saline with Tween-80 93 % of control | dose: 12.5 mg/kg/injection, schedule: Q04DX003 (ip), vehicle: saline with Tween-80 86 % of control | dose: 25.0 mg/kg/injection, schedule: Q04DX003 (ip), vehicle: saline with Tween-80 91 % of control

O=C(NC(Cc1ccccc1)C(=O)NC(Cc1ccc(O)cc1)C(=O)O)OCc1ccccc1 (stereo not drawn) (Cbz-Phe-Tyr-OH; configuration not given here)
inactive: [2] 105 % of control | [3] 86 % of control

C(=N\Nc1nn[nH]n1)/c1ccccc1
inactive: [5] 92 % of control | [1] 96 % of control | [2] 89 % of control | [3] 90 % of control

CC(CC(O)c1ccccc1)c1ccccc1 (stereo not given)
inactive: [4] 102 % of control | [6] 100 % of control | [7] 92 % of control

CCCC[P+](CCCC)(CCCC)C(C)C
inactive: [5] 106 % of control | [1] 104 % of control

CN(C)CCCNC(=O)Nc1ccccc1
inactive: [4] 100 % of control | [6] 92 % of control

CC(=O)Nc1ccn(C2OC(COC(C)=O)C(OC(C)=O)C2OC(C)=O)c(=O)n1 (stereo not given)
inactive: [8] 103 % of control | dose: 300.0 mg/kg/injection, schedule: Q01DX009 (ip), vehicle: saline with Tween-80 114 % of control | dose: 600.0 mg/kg/injection, schedule: Q01DX009 (ip), vehicle: saline with Tween-80 119 % of control | dose: 1200.0 mg/kg/injection, schedule: Q01DX009 (ip), vehicle: saline with Tween-80 123 % of control

O=C1c2ccccc2S(=O)(=O)c2ccc(Br)cc21
inactive: [4] 93 % of control | [6] 90 % of control | [7] 93 % of control

CN1CCN(CCC=C2c3ccccc3Sc3ccc(S(=O)(=O)N(C)C)cc32)CC1
inactive: dose: 0.78 mg/kg/injection, schedule: Q01DX009 (ip), vehicle: saline 102 % of control | dose: 1.56 mg/kg/injection, schedule: Q01DX009 (ip), vehicle: saline 100 % of control | dose: 3.12 mg/kg/injection, schedule: Q01DX009 (ip), vehicle: saline 86 % of control | [9] 89 % of control

COc1ccc(C[C@H](N)C(=O)NC2C(CO)OC(n3cnc4c(N(C)C)ncnc43)C2O)cc1 (stereo not given in full)
inactive: dose: 4.0 mg/kg/injection, schedule: Q01DX009 (ip), vehicle: saline 114 % of control | dose: 8.0 mg/kg/injection, schedule: Q01DX009 (ip), vehicle: saline 107 % of control | dose: 16.0 mg/kg/injection, schedule: Q01DX009 (ip), vehicle: saline 109 % of control | dose: 32.0 mg/kg/injection, schedule: Q01DX009 (ip), vehicle: saline 110 % of control and 114 % of control | dose: 40.0 mg/kg/injection, schedule: Q01DX009 (ip), vehicle: saline 108 % of control

C/C=C/c1cc2c(c(=O)o1)C(=O)[C@@H](O)[C@H](C)O2
inactive: [5] 95 % of control | [1] 90 % of control | [2] 95 % of control | [3] 110 % of control

O=C(Nc1ccccc1Cl)c1ccc([N+](=O)[O-])cc1
inactive: [3] 100 % of control | [10] 105 % of control | dose: 400.0 mg/kg/injection, schedule: Q01DX009 (ip), vehicle: saline with Tween-80 97 % of control

CCCCCCCCC(=O)N1CC(C)OC(C)C1 (stereo not given)
inactive: [4] 103 % of control | [6] 89 % of control | [7] 94 % of control

CC(=O)Oc1ccc(/C=N/NC(N)=S)nc1
inactive: dose: 9.4 mg/kg/injection, schedule: Q01DX009 (ip), vehicle: saline with Tween-80 96 % of control | dose: 18.8 mg/kg/injection, schedule: Q01DX009 (ip), vehicle: saline with Tween-80 106 % of control | dose: 37.5 mg/kg/injection, schedule: Q01DX009 (ip), vehicle: saline with Tween-80 108 % of control | dose: 75.0 mg/kg/injection, schedule: Q01DX009 (ip), vehicle: saline with Tween-80 112 % of control | [8] 108 % of control

CCN(CC)CCCNC(=S)NC(C)(C)CC(C)=O
inactive: dose: 75.0 mg/kg/injection, schedule: Q04DX003 (ip), vehicle: Klucel (hydroxypropylcellulose) (HPC) 95 % of control | dose: 150.0 mg/kg/injection, schedule: Q04DX003 (ip), vehicle: Klucel (hydroxypropylcellulose) (HPC) 92 % of control | dose: 300.0 mg/kg/injection, schedule: Q04DX003 (ip), vehicle: Klucel (hydroxypropylcellulose) (HPC) 95 % of control

COC1NC(=O)NC(=O)C1=[N+]=[N-] (stereo not given)
inactive: dose: 2.0 mg/kg/injection, schedule: Q01DX009 (ip), vehicle: water 112 % of control

C/C=C/C(=O)NCC(C(C)C)/[N+]([O-])=N/O (stereo not given)
inactive: dose: 6.25 mg/kg/injection, schedule: Q01DX009 (ip), vehicle: saline 100 % of control | [9] 104 % of control | dose: 25.0 mg/kg/injection, schedule: Q01DX009 (ip), vehicle: saline 100 % of control

COc1cc2cc3c4ccccc4cc[n+]3c(C)c2cc1OC (tested in a mixture with another compound)
inactive: dose: 5.0 mg/kg/injection, schedule: Q01DX009 (ip), vehicle: Klucel (hydroxypropylcellulose) (HPC) 99 % of control | dose: 10.0 mg/kg/injection, schedule: Q01DX009 (ip), vehicle: Klucel (hydroxypropylcellulose) (HPC) 99 % of control | dose: 20.0 mg/kg/injection, schedule: Q01DX009 (ip), vehicle: Klucel (hydroxypropylcellulose) (HPC) 95 % of control

Cc1ccc(Cl)cc1NC(=O)c1ccccc1C(=O)O
inactive: [4] 93 % of control | [6] 93 % of control | [7] 103 % of control

C[N+](C)(C)CCOc1ccc(Cl)cc1
inactive: dose: 12.5 mg/kg/injection, schedule: Q04DX003 (ip), vehicle: Klucel (hydroxypropylcellulose) (HPC) 105 % of control | dose: 25.0 mg/kg/injection, schedule: Q04DX003 (ip), vehicle: Klucel (hydroxypropylcellulose) (HPC) 107 % of control | dose: 50.0 mg/kg/injection, schedule: Q04DX003 (ip), vehicle: Klucel (hydroxypropylcellulose) (HPC) 107 % of control | dose: 100.0 mg/kg/injection, schedule: Q04DX003 (ip), vehicle: Klucel (hydroxypropylcellulose) (HPC) 94 % of control

O=C(CNC(=O)c1ccccc1)NCC(=O)NC(Cc1ccccc1)C(=O)O (stereo not drawn) (Bz-Gly-Gly-[ξF]-OH)
inactive: [2] 90 % of control | [3] 87 % of control | [10] 90 % of control

COc1cccc(OC)c1OC(=O)/C=C\C(=O)Oc1c(OC)cccc1OC
inactive: dose: 75.0 mg/kg/injection, schedule: Q01DX009 (ip), vehicle: Klucel (hydroxypropylcellulose) (HPC) 100 % of control | dose: 150.0 mg/kg/injection, schedule: Q01DX009 (ip), vehicle: Klucel (hydroxypropylcellulose) (HPC) 100 % of control | dose: 300.0 mg/kg/injection, schedule: Q01DX009 (ip), vehicle: Klucel (hydroxypropylcellulose) (HPC) 100 % of control
